Drawing on publication PMC5123632 (2016), this text covers ΔTm for one compound.

This assay concerns nasT'FRET (DNA, G4) GGGAGCGGGACGGGGGCCGGG
The experiment in a line: FRET melting. Particulars: 100 mM Na+; 10 mM sodium cacodylate pH 7.4; 1 μM ligand (stated for ligand 1).

With `C[n+]1ccc(-c2c3nc(c(-c4cc[n+](C)cc4)c4ccc([nH]4)c(-c4cc[n+](C)cc4)c4nc(c(-c5cc[n+](C)cc5)c5ccc2[nH]5)C=C4)C=C3)cc1`, the shift in melting temperature (ΔTm) (usually the shift of the melting midpoint relative to a reference) stood at 30 °C.
